Legend:
[1] = target: T1, human muscarinic acetylcholine M3 receptor (M3-ACh) (Homo sapiens, UniProt P20309); experiment: Muscarinic 3 Receptor Binding Assay ([3H]NMS competition, SPA); settings: [3H]NMS 0.1 nM, CHO-K1 cell membranes, 16 hours at room temperature; read-out: M3 pIC50 (converted)
T1 construct: expressed in transfected cells; host or cells: CHO-K1 (Chinese Hamster Ovary) cell membranes
In short: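 Competition SPA binding of 0.1 nM [3H]NMS (quarter Kd) to membranes from CHO-K1 cells expressing human M3, in 20 mM HEPES pH 7.4, 5 mM MgCl2, 1% DMSO. Incubated 16 h at room temperature; non-specific binding with 1 µM atropine. pIC50 from 50% reduction of specific binding.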

[2] = target: T2, Adrenergic β2 (H292 cells) (Homo sapiens, UniProt P07550); experiment: Adrenergic β2 Mediated cAMP Production, single concentration 1 μM; type: cell-based; settings: percentage of the maximum response generated by 1E-07M formoterol; for activation at 1 µM: NCI-H292, 1 μM compound, read-out: β2 (% effect at 1 μM); for β2 (% effect at 1 μM): 1 μM compound
T2 construct: endogenous in cells; host or cells: H292 cells
In short: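 cAMP was quantified by AlphaScreen in lysates of H292 cells and reported as a percentage of the 1E-07M formoterol maximum. Before lysis the cells, seeded the previous day, received rolipram (300 μM final) and then test compound at a final 1 μM in 1% DMSO for 60 min at room temperature.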

[3] = target: T1, human muscarinic acetylcholine M3 receptor (M3-ACh); experiment: Muscarinic 3 Receptor Binding Assay, % inhibition specific binding at 1 μM; settings: 1 μM compound, % inhibition specific [3H]-NMS binding
In short: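 Value is % inhibition of specific [3H]N-methyl scopolamine binding (0.1 nM, quarter Kd) by 1 μM compound, using SPA beads precoated with human M3-expressing CHO-K1 membranes. Buffer HEPES pH 7.4 with MgCl2 and 1% DMSO; 16 h at room temperature; 1 μM atropine sets non-specific binding.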

[4] = target: T2, Adrenergic β2 (H292 cells); experiment: Assay for Adrenergic β2 Mediated cAMP Production (concentration response, AlphaScreen cAMP detection); type: cell-based; settings: for EC50: cAMP production, 60 minutes at room temperature, 300 μM rolipram, read-out: β2 pEC50 (converted); for β2 Intrinsic activity: fraction relative to the maximum activity determined for formoterol
In short: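 Intrinsic activity is relative to the per-experiment formoterol maximum, with pEC50 from a four-parameter logistic fit of cAMP levels quantified by AlphaScreen against standards. Cells (H292) got 300 μM rolipram for 10 min, then compound for 60 min at room temperature, 1% DMSO final.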

T1 sequence (P20309 whole entry): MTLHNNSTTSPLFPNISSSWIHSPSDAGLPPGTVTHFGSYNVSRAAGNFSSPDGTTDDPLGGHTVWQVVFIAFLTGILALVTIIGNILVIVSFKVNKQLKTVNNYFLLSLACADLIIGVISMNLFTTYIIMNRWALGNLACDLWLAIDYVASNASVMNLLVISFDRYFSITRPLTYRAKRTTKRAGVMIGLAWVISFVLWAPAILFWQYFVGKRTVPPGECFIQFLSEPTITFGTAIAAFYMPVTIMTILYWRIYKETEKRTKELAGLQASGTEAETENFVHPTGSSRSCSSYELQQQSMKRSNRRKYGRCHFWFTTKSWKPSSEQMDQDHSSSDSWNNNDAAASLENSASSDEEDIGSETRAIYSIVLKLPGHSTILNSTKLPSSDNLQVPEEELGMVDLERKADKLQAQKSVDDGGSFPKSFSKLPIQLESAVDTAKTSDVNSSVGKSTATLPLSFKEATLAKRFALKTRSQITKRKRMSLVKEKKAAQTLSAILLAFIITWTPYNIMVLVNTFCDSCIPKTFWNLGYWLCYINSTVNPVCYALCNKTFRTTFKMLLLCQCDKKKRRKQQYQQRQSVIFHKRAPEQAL
T2 sequence (P07550 whole entry): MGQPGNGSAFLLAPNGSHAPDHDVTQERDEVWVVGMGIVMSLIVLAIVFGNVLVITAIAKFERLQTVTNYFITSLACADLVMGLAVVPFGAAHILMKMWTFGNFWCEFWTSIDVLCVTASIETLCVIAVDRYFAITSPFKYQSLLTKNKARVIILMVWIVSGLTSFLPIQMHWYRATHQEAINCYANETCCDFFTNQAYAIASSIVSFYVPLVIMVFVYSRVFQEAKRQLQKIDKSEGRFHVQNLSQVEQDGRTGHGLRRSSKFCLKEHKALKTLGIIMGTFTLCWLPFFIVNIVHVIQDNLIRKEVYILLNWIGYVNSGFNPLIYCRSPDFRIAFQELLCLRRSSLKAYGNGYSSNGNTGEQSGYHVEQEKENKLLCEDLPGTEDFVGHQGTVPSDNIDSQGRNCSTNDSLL

IC50 [1]	activation at 1 µM [2]	inhibition at 1 µM [3]	EC50 [4]	β2 Intrinsic activity [4]	β2 (% effect at 1 μM) [2]	M3 (% inhibition at 1 μM) [3]	Compound
20 nM	101%	95%	6.31 nM	1	–	–	Cc1ccc(C(=O)N2CCOC3(CCN(Cc4cc(F)cc(CCNC[C@H](O)c5ccc(O)c6[nH]c(=O)sc56)c4)CC3)C2)s1 [Example 118, (R)-7-(2-(3-fluoro-5-((4-(5-methylthiophene-2-carbonyl)-1-oxa-4,9-diazaspiro[5.5]undecan-9-yl)methyl)phenethylamino)-1-hydroxyethyl)-4-hydroxybenzo[d]thiazol-2(3H)-one]
12.6 nM	100%	97%	3.98 nM	0.9	–	–	O=C(c1ccc(Cl)s1)N1CCOC2(CCN(Cc3cc(F)cc(CCNC[C@H](O)c4ccc(O)c5[nH]c(=O)sc45)c3)CC2)C1 [Example 124, (R)-7-(2-(3-((4-(5-chlorothiophene-2-carbonyl)-1-oxa-4,9-diazaspiro[5.5]undecan-9-yl)methyl)-5-fluorophenethylamino)-1-hydroxyethyl)-4-hydroxybenzo[d]thiazol-2(3H)-one]
79.4 nM	109%	90%	12.6 nM	1	–	–	CC(C)(C)CC(=O)N1CCOC2(CCN(Cc3cc(F)cc(CCNC[C@H](O)c4ccc(O)c5[nH]c(=O)sc45)c3)CC2)C1 [Example 130, (R)-7-(2-(3-((4-(3,3-dimethylbutanoyl)-1-oxa-4,9-diazaspiro[5.5]undecan-9-yl)methyl)-5-fluorophenethylamino)-1-hydroxyethyl)-4-hydroxybenzo[d]thiazol-2(3H)-one]
25.1 nM	105%	91%	6.31 nM	0.9	–	–	O=C(c1cccc2cc[nH]c12)N1CCOC2(CCN(Cc3cc(F)cc(CCNC[C@H](O)c4ccc(O)c5[nH]c(=O)sc45)c3)CC2)C1 [Example 141, (R)-7-(2-(3-((4-(1H-indole-7-carbonyl)-1-oxa-4,9-diazaspiro[5.5]undecan-9-yl)methyl)-5-fluorophenethylamino)-1-hydroxyethyl)-4-hydroxybenzo[d]thiazol-2(3H)-one]
–	–	–	–	–	55%	96%	O=C(c1csc(C(F)(F)F)n1)N1CCOC2(CCN(CCOc3ccc(CNC[C@H](O)c4ccc(O)c5[nH]c(=O)sc45)cc3)CC2)C1 [Example 258]
–	56%	93%	–	–	–	–	CCCc1nc(C(=O)N2CCOC3(CCN(CCOc4ccc(CNC[C@H](O)c5ccc(O)c6[nH]c(=O)sc56)cc4)CC3)C2)cs1 [Example 260, (R)-4-hydroxy-7-(1-hydroxy-2-(4-(2-(4-(2-propylthiazole-4-carbonyl)-1-oxa-4,9-diazaspiro[5.5]undecan-9-yl)ethoxy)benzylamino)ethyl) benzo[d]thiazol-2(3H)-one]
–	70%	90%	–	–	–	–	O=C(c1csc(C2CCC2)n1)N1CCOC2(CCN(CCOc3ccc(CNC[C@H](O)c4ccc(O)c5[nH]c(=O)sc45)cc3)CC2)C1 [Example 261, (R)-7-(2-(4-(2-(4-(2-cyclobutylthiazole-4-carbonyl)-1-oxa-4,9-diazaspiro[5.5]undecan-9-yl)ethoxy)benzylamino)-1-hydroxyethyl)-4-hydroxy-benzo[d]thiazol-2(3H)-one]
–	69%	82%	–	–	–	–	O=C(c1csc(C2CCCC2)n1)N1CCOC2(CCN(CCOc3ccc(CNC[C@H](O)c4ccc(O)c5[nH]c(=O)sc45)cc3)CC2)C1 [Example 262, (R)-7-(2-(4-(2-(4-(2-cyclopentylthiazole-4-carbonyl)-1-oxa-4,9-diazaspiro[5.5]undecan-9-yl)ethoxy)benzylamino)-1-hydroxyethyl)-4-hydroxy-benzo[d]thiazol-2(3H)-one]
–	–	–	–	–	74%	37%	Cc1cc(C(=O)N2CCOC3(CCN(CCOc4ccc(CNC[C@H](O)c5ccc(O)c6[nH]c(=O)sc56)cc4)CC3)C2)sc1C [Example 263]

From US8148373B2, “Compounds” (AstraZeneca AB, priority 2008, dated 2012)
